# In ChEMBL document CHEMBL1201862, “PubChem BioAssay data set” (2004):
#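 Dose response: 5 concentrations. Exposure: 48 h. Format: 96-well plates. Endpoint: linear interpolation; highest concentration if not reached. GI50 is the concentration that inhibits growth by half.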 Active and inactive are the calls of the source. No stated cut-off is given here; in the data, active = GI50 up to about 1.1 µM and inactive = higher.
# Legend:
# Assay in all cases: growth of human tumour cells (NCI), 48 h
# A549 = system: A549
# SK-OV-3 = system: SK-OV-3
# PC-3 = system: PC-3
# TK-10 = system: TK-10
# OVCAR-8 = system: OVCAR-8
# Malme-3M = system: Malme-3M
# COLO 205 = system: COLO 205
# 786-0 = system: 786-0
# SF-539 = system: SF-539
# EKVX = system: EKVX
# HCT-116 = system: HCT-116
# U-251 = system: U-251
# HCC 2998 = system: HCC 2998
# OVCAR-3 = system: OVCAR-3
# DU-145 = system: DU-145
# MOLT-4 = system: MOLT-4
# OVCAR-5 = system: OVCAR-5
# HOP-92 = system: HOP-92
# T47D = system: T47D
# SK-MEL-5 = system: SK-MEL-5
# MDA-MB-231 = system: MDA-MB-231
# SW-620 = system: SW-620
# BT-549 = system: BT-549
# ACHN = system: ACHN
# HCT-15 = system: HCT-15
# MDA-MB-435 = system: MDA-MB-435
# MCF7 = system: MCF7
# UACC-62 = system: UACC-62
# CCRF-CEM = system: CCRF-CEM
# SN12C = system: SN12C
# Hs-578T = system: Hs-578T
# SK-MEL-28 = system: SK-MEL-28
# HT-29 = system: HT-29
# MDA-N = system: MDA-N
# RPMI-8226 = system: RPMI-8226
# SF-268 = system: SF-268
# HL-60 = system: HL-60
# NCI-H460 = system: NCI-H460
# KM12 = system: KM12
# UACC-257 = system: UACC-257
# SNB-75 = system: SNB-75
# M14 = system: M14
# RXF 393 = system: RXF 393
# OVCAR-4 = system: OVCAR-4
# K562 = system: K562
# NCI-H23 = system: NCI-H23
# SNB-19 = system: SNB-19
# HOP-62 = system: HOP-62
# NCI-H226 = system: NCI-H226
# NCI-H522 = system: NCI-H522
# SF-295 = system: SF-295
# IGROV-1 = system: IGROV-1
# NCI/ADR-RES = system: NCI/ADR-RES
# UO-31 = system: UO-31
# CAKI-1 = system: CAKI-1
# SK-MEL-2 = system: SK-MEL-2
# LOX IMVI = system: LOX IMVI
smiles,measurement,setting,value
CC(=O)CC1CCC(=O)CCC(=O)OC(CC(C)=O)CCC(=O)CCC(=O)O1 (stereo not drawn),GI50,A549,> 100 µM (inactive)
same,GI50,SK-OV-3,> 100 µM (inactive)
same,GI50,PC-3,> 100 µM (inactive)
same,GI50,TK-10,> 100 µM (inactive)
same,GI50,OVCAR-8,> 100 µM (inactive)
same,GI50,Malme-3M,> 100 µM (inactive)
same,GI50,COLO 205,> 100 µM (inactive)
same,GI50,786-0,> 100 µM (inactive)
same,GI50,SF-539,> 100 µM (inactive)
same,GI50,EKVX,> 100 µM (inactive)
same,GI50,HCT-116,> 100 µM (inactive)
same,GI50,U-251,> 100 µM (inactive)
same,GI50,HCC 2998,> 100 µM (inactive)
same,GI50,OVCAR-3,> 100 µM (inactive)
same,GI50,DU-145,> 100 µM (inactive)
same,GI50,MOLT-4,> 100 µM (inactive)
same,GI50,OVCAR-5,> 100 µM (inactive)
same,GI50,HOP-92,> 100 µM (inactive)
same,GI50,T47D,> 100 µM (inactive)
same,GI50,SK-MEL-5,> 100 µM (inactive)
same,GI50,MDA-MB-231,> 100 µM (inactive)
same,GI50,SW-620,> 100 µM (inactive)
same,GI50,BT-549,> 100 µM (inactive)
same,GI50,ACHN,> 100 µM (inactive)
same,GI50,HCT-15,> 100 µM
same,GI50,MDA-MB-435,> 100 µM (inactive)
same,GI50,MCF7,> 100 µM (inactive)
same,GI50,UACC-62,> 100 µM (inactive)
same,GI50,CCRF-CEM,> 100 µM (inactive)
same,GI50,SN12C,> 100 µM (inactive)
same,GI50,Hs-578T,> 100 µM (inactive)
same,GI50,SK-MEL-28,> 100 µM (inactive)
same,GI50,HT-29,> 100 µM (inactive)
same,GI50,MDA-N,> 100 µM (inactive)
same,GI50,RPMI-8226,> 100 µM (inactive)
same,GI50,SF-268,> 100 µM (inactive)
same,GI50,HL-60,> 100 µM (inactive)
same,GI50,NCI-H460,> 100 µM (inactive)
same,GI50,KM12,> 100 µM (inactive)
same,GI50,UACC-257,> 100 µM (inactive)
same,GI50,SNB-75,> 100 µM (inactive)
same,GI50,M14,> 100 µM (inactive)
same,GI50,RXF 393,> 100 µM (inactive)
same,GI50,OVCAR-4,> 100 µM (inactive)
same,GI50,K562,> 100 µM (inactive)
same,GI50,NCI-H23,> 100 µM (inactive)
same,GI50,SNB-19,> 100 µM (inactive)
same,GI50,HOP-62,> 100 µM (inactive)
same,GI50,NCI-H226,> 100 µM (inactive)
same,GI50,NCI-H522,> 100 µM (inactive)
same,GI50,SF-295,> 100 µM (inactive)
same,GI50,IGROV-1,> 100 µM (inactive)
same,GI50,NCI/ADR-RES,> 100 µM (inactive)
[B].c1ccc([Si](OCCN2CC2)(c2ccccc2)c2ccccc2)cc1,GI50,A549,11.9 µM (inactive)
same,GI50,SK-OV-3,14.4 µM (inactive)
same,GI50,PC-3,13.5 µM (inactive)
same,GI50,TK-10,15.5 µM (inactive)
same,GI50,OVCAR-8,16.6 µM (inactive)
same,GI50,Malme-3M,14.9 µM (inactive)
same,GI50,COLO 205,12.2 µM (inactive)
same,GI50,786-0,14.2 µM (inactive)
same,GI50,SF-539,14 µM (inactive)
same,GI50,EKVX,12.8 µM (inactive)
same,GI50,HCT-116,14.6 µM (inactive)
same,GI50,U-251,14 µM (inactive)
same,GI50,HCC 2998,13.6 µM (inactive)
same,GI50,UO-31,15.2 µM (inactive)
same,GI50,OVCAR-3,16.4 µM (inactive)
same,GI50,CAKI-1,16.3 µM (inactive)
same,GI50,DU-145,13.7 µM (inactive)
same,GI50,MOLT-4,14.3 µM (inactive)
same,GI50,OVCAR-5,14.6 µM (inactive)
same,GI50,HOP-92,2.36 µM (inactive)
same,GI50,T47D,15.6 µM (inactive)
same,GI50,SK-MEL-5,15.8 µM (inactive)
same,GI50,MDA-MB-231,14.9 µM (inactive)
same,GI50,SW-620,14.7 µM (inactive)
same,GI50,BT-549,17.5 µM (inactive)
same,GI50,ACHN,14.8 µM (inactive)
same,GI50,HCT-15,7.66 µM
same,GI50,MDA-MB-435,13.8 µM (inactive)
same,GI50,MCF7,14.5 µM (inactive)
same,GI50,UACC-62,14.2 µM (inactive)
same,GI50,CCRF-CEM,18.7 µM (inactive)
same,GI50,SN12C,14.3 µM (inactive)
same,GI50,Hs-578T,12.4 µM (inactive)
same,GI50,SK-MEL-2,0.557 µM (active)
same,GI50,HT-29,14 µM (inactive)
same,GI50,MDA-N,14.9 µM (inactive)
same,GI50,RPMI-8226,13.9 µM (inactive)
same,GI50,SF-268,11 µM (inactive)
same,GI50,HL-60,27.1 µM (inactive)
same,GI50,NCI-H460,12.5 µM (inactive)
same,GI50,KM12,15.6 µM (inactive)
same,GI50,UACC-257,15.3 µM (inactive)
same,GI50,M14,15.9 µM (inactive)
same,GI50,RXF 393,4.46 µM (inactive)
same,GI50,OVCAR-4,10.8 µM (inactive)
same,GI50,K562,8.3 µM (inactive)
same,GI50,NCI-H23,15.6 µM (inactive)
same,GI50,SNB-19,0.436 µM (active)
same,GI50,HOP-62,14.9 µM (inactive)
same,GI50,NCI-H226,16 µM (inactive)
same,GI50,LOX IMVI,14.5 µM (inactive)
same,GI50,NCI-H522,12.9 µM (inactive)
same,GI50,SF-295,14.3 µM (inactive)
same,GI50,IGROV-1,12.9 µM (inactive)
same,GI50,NCI/ADR-RES,14.1 µM (inactive)
